# Tested on: Staphylococcus aureus
# Test: Antibacterial activity against Staphylococcus aureus ATCC 29213 after 16 to 20 hrs by CLSI standard method
# Assay type: functional
# Conditions: not given
row,SMILES,MBC [µg/mL]
1,CC(C)(CCS(=O)(=O)O)N(Cl)Cl,4
2,CC(C)(CP(=O)(O)O)N(Cl)Cl,16
3,CC(=O)NS(=O)(=O)CC(C)(C)N(Cl)Cl,1
4,CC(C)(CC(=O)OCCS(=O)(=O)O)N(Cl)Cl,2
5,CC(C)(CS(=O)(=O)O)C(=O)OCC(C)(C)N(Cl)Cl,8
6,CC(C)(CS(=O)(=O)CCS(=O)(=O)O)N(Cl)Cl,8

# Tested on: Staphylococcus aureus
# Test: Antibacterial activity against Staphylococcus aureus MCC 91731 after 16 to 20 hrs by CLSI standard method
# Assay type: functional
# Conditions: not given
row,SMILES,MBC [µg/mL]
1,CC(C)(COC(=O)CCS(=O)(=O)O)N(Cl)Cl,1
2,CCOP(=O)(O)CC(C)(C)N(Cl)Cl,2
3,CC(C)(CS(=O)(=O)[O-])N(Cl)Cl.[Na+],1
4,CC(C)(CCCS(=O)(=O)O)N(Cl)Cl,8

# Tested on: Escherichia coli
# Test: Antibacterial activity against Escherichia coli ATCC 25922 after 16 to 20 hrs by CLSI standard method
# Assay type: functional
# Conditions: not given
row,SMILES,MBC [µg/mL]
1,CC(C)(COC(=O)CCS(=O)(=O)O)N(Cl)Cl,2
2,CC(C)(CCS(=O)(=O)O)N(Cl)Cl,4
3,CC(C)(CP(=O)(O)O)N(Cl)Cl,8
4,CC(=O)NS(=O)(=O)CC(C)(C)N(Cl)Cl,2
5,CC(C)(CC(=O)OCCS(=O)(=O)O)N(Cl)Cl,2
6,CC(C)(CS(=O)(=O)O)C(=O)OCC(C)(C)N(Cl)Cl,4
7,CC(C)(CS(=O)(=O)CCS(=O)(=O)O)N(Cl)Cl,4

# Tested on: Escherichia coli
# Test: Antibacterial activity against Escherichia coli MCC 80392 after 16 to 20 hrs by CLSI standard method
# Assay type: functional
# Conditions: not given
row,SMILES,MBC [µg/mL]
1,CC(C)(CS(=O)(=O)[O-])N(Cl)Cl.[Na+],4
2,CC(C)(CCCS(=O)(=O)O)N(Cl)Cl,8

# Tested on: Candida albicans
# Test: Antifungal activity against Candida albicans ATCC 10231 after 16 to 20 hrs by CLSI standard method
# Assay type: functional
# Conditions: not given
row,SMILES,MFC [µg/mL]
1,CC(C)(CCS(=O)(=O)O)N(Cl)Cl,16
2,CC(C)(CP(=O)(O)O)N(Cl)Cl,16
3,CC(=O)NS(=O)(=O)CC(C)(C)N(Cl)Cl,64
4,CC(C)(CC(=O)OCCS(=O)(=O)O)N(Cl)Cl,64
5,CC(C)(CS(=O)(=O)O)C(=O)OCC(C)(C)N(Cl)Cl,16
6,CC(C)(CS(=O)(=O)CCS(=O)(=O)O)N(Cl)Cl,64

# Tested on: Candida albicans
# Test: Antifungal activity against Candida albicans MCC 50319 after 16 to 20 hrs by CLSI standard method
# Assay type: functional
# Conditions: not given
row,SMILES,MFC [µg/mL]
1,CC(C)(COC(=O)CCS(=O)(=O)O)N(Cl)Cl,4
2,CCOP(=O)(O)CC(C)(C)N(Cl)Cl,32
3,CC(C)(CS(=O)(=O)[O-])N(Cl)Cl.[Na+],32
4,CC(C)(CCCS(=O)(=O)O)N(Cl)Cl,> 128

# Tested on: not listed separately
# Test: Cytotoxicity against mouse L929 cells
# Assay type: cell-based
# Conditions: read-out: CT50 (the source's name)
row,SMILES,CC50 [µg/mL]
1,CC(C)(COC(=O)CCS(=O)(=O)O)N(Cl)Cl,130
2,CCOP(=O)(O)CC(C)(C)N(Cl)Cl,80
3,CC(C)(CCS(=O)(=O)O)N(Cl)Cl,1900
4,CC(C)(CP(=O)(O)O)N(Cl)Cl,130
5,CC(C)(CS(=O)(=O)[O-])N(Cl)Cl.[Na+],1200
6,CC(C)(CC(=O)OCCS(=O)(=O)O)N(Cl)Cl,270
7,CC(C)(CCCS(=O)(=O)O)N(Cl)Cl,640
8,CC(C)(CS(=O)(=O)O)C(=O)OCC(C)(C)N(Cl)Cl,840
9,CC(C)(CS(=O)(=O)CCS(=O)(=O)O)N(Cl)Cl,1820

# Tested on: not listed separately
# Test: Aqueous solubility at pH 4
# Assay type: physicochemical
# Conditions: aqueous solution
row,SMILES,half-life [days]
1,CCOP(=O)(O)CC(C)(C)N(Cl)Cl,> 18
2,CC(C)(CP(=O)(O)O)N(Cl)Cl,23
3,CC(C)(CS(=O)(=O)[O-])N(Cl)Cl.[Na+],> 200
4,CC(=O)NS(=O)(=O)CC(C)(C)N(Cl)Cl,44
5,CC(C)(CCCS(=O)(=O)O)N(Cl)Cl,16
6,CC(C)(CS(=O)(=O)CCS(=O)(=O)O)N(Cl)Cl,> 95

# The next lines start with the values.
row,half-life [days],SMILES
1,64,CC(C)(COC(=O)CCS(=O)(=O)O)N(Cl)Cl
2,174,CC(C)(CCS(=O)(=O)O)N(Cl)Cl
3,> 95,CC(C)(CC(=O)OCCS(=O)(=O)O)N(Cl)Cl
4,80,CC(C)(CS(=O)(=O)O)C(=O)OCC(C)(C)N(Cl)Cl

# Tested on: not listed separately
# Test: Therapeutic index, ratio of CT50 for mouse L929 cells to MBC for Staphylococcus aureus
# Assay type: cell-based
# Conditions: read-out: TI
row,SMILES,selectivity ratio
1,CC(C)(COC(=O)CCS(=O)(=O)O)N(Cl)Cl,8
2,CCOP(=O)(O)CC(C)(C)N(Cl)Cl,8
3,CC(C)(CCS(=O)(=O)O)N(Cl)Cl,8
4,CC(C)(CP(=O)(O)O)N(Cl)Cl,8
5,CC(C)(CS(=O)(=O)[O-])N(Cl)Cl.[Na+],8
6,CC(=O)NS(=O)(=O)CC(C)(C)N(Cl)Cl,8
7,CC(C)(CC(=O)OCCS(=O)(=O)O)N(Cl)Cl,8
8,CC(C)(CCCS(=O)(=O)O)N(Cl)Cl,8
9,CC(C)(CS(=O)(=O)O)C(=O)OCC(C)(C)N(Cl)Cl,8
10,CC(C)(CS(=O)(=O)CCS(=O)(=O)O)N(Cl)Cl,8

# Tested on: not listed separately
# Test: Therapeutic index, ratio of CT50 for mouse L929 cells to MBC for Escherichia coli
# Assay type: cell-based
# Conditions: read-out: TI
row,SMILES,selectivity ratio
1,CC(C)(COC(=O)CCS(=O)(=O)O)N(Cl)Cl,8
2,CCOP(=O)(O)CC(C)(C)N(Cl)Cl,8
3,CC(C)(CCS(=O)(=O)O)N(Cl)Cl,8
4,CC(C)(CP(=O)(O)O)N(Cl)Cl,8
5,CC(C)(CS(=O)(=O)[O-])N(Cl)Cl.[Na+],8
6,CC(=O)NS(=O)(=O)CC(C)(C)N(Cl)Cl,8
7,CC(C)(CC(=O)OCCS(=O)(=O)O)N(Cl)Cl,8
8,CC(C)(CCCS(=O)(=O)O)N(Cl)Cl,8
9,CC(C)(CS(=O)(=O)O)C(=O)OCC(C)(C)N(Cl)Cl,8
10,CC(C)(CS(=O)(=O)CCS(=O)(=O)O)N(Cl)Cl,8

# Tested on: not listed separately
# Test: Therapeutic index, ratio of CT50 for mouse L929 cells to MFC for Candida albicans
# Assay type: cell-based
# Conditions: read-out: TI
row,SMILES,selectivity ratio
1,CC(C)(COC(=O)CCS(=O)(=O)O)N(Cl)Cl,2
2,CCOP(=O)(O)CC(C)(C)N(Cl)Cl,2
3,CC(C)(CCS(=O)(=O)O)N(Cl)Cl,2
4,CC(C)(CP(=O)(O)O)N(Cl)Cl,2
5,CC(C)(CS(=O)(=O)[O-])N(Cl)Cl.[Na+],2
6,CC(=O)NS(=O)(=O)CC(C)(C)N(Cl)Cl,2
7,CC(C)(CC(=O)OCCS(=O)(=O)O)N(Cl)Cl,2
8,CC(C)(CCCS(=O)(=O)O)N(Cl)Cl,2
9,CC(C)(CS(=O)(=O)O)C(=O)OCC(C)(C)N(Cl)Cl,2
10,CC(C)(CS(=O)(=O)CCS(=O)(=O)O)N(Cl)Cl,2
